Some test systems named below: SK-MEL-5; CCRF-CEM; NCI/ADR-RES; A498; SN12C; T47D; SNB-75; SK-OV-3; UACC-62; MCF7; MDA-MB-435; SK-MEL-2; HCT-116; UO-31; SF-295; M14; CAKI-1; U-251; OVCAR-4; NCI-H226.
Holding throughout (assay): NCI-60 cell line screen, 48 h

Structures are written as SMILES.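 Tested at 5 concentrations; 48 h exposure; 96-well plates; endpoints linearly interpolated, else capped at highest concentration. GI50: concentration for 50% inhibition of growth.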 Active and inactive are the calls of the source. No stated cut-off is given here; in the data, active = GI50 up to about 1.1 µM and inactive = higher.

For the compound `Nc1ncnc2c1ccn2C/C=C/CO`, the GI50 in the experiment with SK-MEL-5, in the experiment on CCRF-CEM, in the experiment on NCI/ADR-RES, in the experiment with A498, with SN12C and in the experiment on T47D was > 100 µM (inactive) each time. The GI50 in the experiment with SNB-75, with SK-OV-3, with UACC-62, in the experiment on MCF7, with MDA-MB-435 and with SK-MEL-2 was > 100 µM (inactive) throughout. Further, the GI50 with HCT-116, in the experiment with UO-31, with SF-295, in the experiment on M14, in the experiment on CAKI-1 and in the experiment with U-251 was > 100 µM (inactive) each time. The GI50 in the experiment with OVCAR-4 is > 100 µM (inactive).

As for `N=C(N)N/N=C/c1c(-c2cc([N+](=O)[O-])c(Cl)cc2Cl)nc2n1CCS2`, the GI50 in the experiment on SK-MEL-5 is 29.9 µM (inactive); in the experiment with CCRF-CEM, 2.84 µM (inactive); with NCI/ADR-RES it was > 100 µM (inactive); in the experiment on A498 it was 77.3 µM (inactive); in the experiment with SN12C, 23.4 µM (inactive); in the experiment with T47D, 2.47 µM (inactive). For the same compound, the GI50 is 25.5 µM (inactive) in the experiment with UACC-62; 2.67 µM (inactive) in the experiment on MCF7; 9.38 µM (inactive) in the experiment on MDA-MB-435; 3.13 µM (inactive) with SK-MEL-2; 5.01 µM (inactive) in the experiment on HCT-116; 18.2 µM (inactive) in the experiment on UO-31. Further, the GI50 in the experiment on SF-295 was 25.6 µM (inactive); with M14, 6.04 µM (inactive); with CAKI-1 it was 40 µM (inactive); in the experiment with U-251, 3.21 µM (inactive); in the experiment on OVCAR-4 it was 10.4 µM (inactive); in the experiment on NCI-H226, 34.4 µM (inactive).

Take `CN(C(=O)Cc1cc(Cl)c(Cl)cc1NC(=O)CN)[C@H]1CCCC[C@@H]1N1CCCC1`: the GI50 with CCRF-CEM was 27.5 µM (inactive); in the experiment on NCI/ADR-RES, > 100 µM (inactive); in the experiment on A498, 20.2 µM (inactive); in the experiment on SN12C, 56.6 µM (inactive); in the experiment on T47D, 25.7 µM (inactive); in the experiment with SNB-75, 20.7 µM (inactive). In addition, the GI50 with SK-OV-3 is > 100 µM (inactive); in the experiment on UACC-62, 16 µM (inactive); with MCF7 it was 28.6 µM (inactive); in the experiment on MDA-MB-435 it was 16.1 µM (inactive); with SK-MEL-2, 18.8 µM (inactive); in the experiment with HCT-116, 30 µM (inactive). Further, the GI50 in the experiment on UO-31 was 33.8 µM (inactive); with SF-295, 24.2 µM (inactive); in the experiment on M14 it was 18.2 µM (inactive); in the experiment with CAKI-1 it was > 100 µM (inactive); in the experiment on U-251, 17.8 µM (inactive); with OVCAR-4 it was > 100 µM (inactive).

As for `CCOC(=O)CCC(NC(=O)c1ccc(OCc2ccc3nc(OC)c(OC)nc3c2)cc1)C(=O)OCC` (centres undefined), the GI50 in the experiment with SK-MEL-5 was 38.4 µM (inactive); with CCRF-CEM, 24 µM (inactive); with A498 it was 71 µM (inactive); with SN12C, 45.3 µM (inactive); with T47D it was 31.7 µM (inactive); with SNB-75 it was 52.6 µM (inactive). For the same compound, the GI50 in the experiment with SK-OV-3 is > 100 µM (inactive); in the experiment on UACC-62, 30.4 µM (inactive); in the experiment with MCF7 it was 35.1 µM (inactive); in the experiment on MDA-MB-435, 27.3 µM (inactive); with SK-MEL-2 it was 23.3 µM (inactive); in the experiment on HCT-116, 50.7 µM (inactive). The GI50 was 64.6 µM (inactive) in the experiment on UO-31; 59.4 µM (inactive) with SF-295; 21.9 µM (inactive) with M14; > 100 µM (inactive) in the experiment with CAKI-1; > 100 µM (inactive) in the experiment with U-251; > 100 µM (inactive) with NCI-H226.

Regarding `CN1C(=O)[C@H](c2c[nH]c3ccccc23)[C@H](c2c[nH]c3ccccc23)C1=O`, the GI50 was 22 µM (inactive) in the experiment with SK-MEL-5; 18.6 µM (inactive) in the experiment with CCRF-CEM; 27 µM (inactive) with NCI/ADR-RES; 44.2 µM (inactive) in the experiment with SN12C; 87.9 µM (inactive) in the experiment with T47D; 34.7 µM (inactive) with SNB-75. In addition, the GI50 was 38.2 µM (inactive) with SK-OV-3; 22.2 µM (inactive) in the experiment on UACC-62; 29.9 µM (inactive) with MCF7; 26.4 µM (inactive) in the experiment on MDA-MB-435; 22.3 µM (inactive) in the experiment with SK-MEL-2; 25.8 µM (inactive) in the experiment on HCT-116. The GI50 is 15.5 µM (inactive) in the experiment on UO-31; 26.1 µM (inactive) in the experiment on SF-295; 38.8 µM (inactive) in the experiment on M14; 2.2 µM (inactive) in the experiment on CAKI-1; 35.4 µM (inactive) with U-251; 5.32 µM (inactive) in the experiment with OVCAR-4. The GI50 in the experiment with NCI-H226 is 27.2 µM (inactive).

Regarding `O=C1c2ccccc2C2(c3ccc(Cl)cc3)N[C@@H]3CCCC[C@@H]3N12` (some centres undefined), the GI50 in the experiment with SK-MEL-5, with CCRF-CEM, with A498, in the experiment on SN12C, in the experiment on T47D and with SNB-75 was > 100 µM (inactive) in each case. Also, the GI50 in the experiment on SK-OV-3, with UACC-62, in the experiment with MCF7, with MDA-MB-435, in the experiment with SK-MEL-2 and in the experiment with HCT-116 was > 100 µM (inactive) in each case. For the same compound, the GI50 in the experiment with UO-31, in the experiment on SF-295, in the experiment with M14, with CAKI-1, with U-251 and in the experiment on OVCAR-4 was > 100 µM (inactive) in each case. Further, the GI50 in the experiment with NCI-H226 is > 100 µM (inactive).

Consider `O=C1CCN2C(=N1)Sc1ccccc12`, for which the GI50 in the experiment on SK-MEL-5, in the experiment on CCRF-CEM, in the experiment with NCI/ADR-RES, in the experiment on SN12C, in the experiment on T47D and with SNB-75 was > 100 µM (inactive) each time. Moreover, the GI50 in the experiment on SK-OV-3, in the experiment on UACC-62, in the experiment on MCF7, in the experiment with MDA-MB-435, with SK-MEL-2 and with HCT-116 was > 100 µM (inactive) in each case. Also, the GI50 in the experiment with SF-295, with M14, in the experiment on CAKI-1, in the experiment with U-251, in the experiment on OVCAR-4 and in the experiment on NCI-H226 was > 100 µM (inactive) throughout.

Take `C=C(C)[C@]12CC(C)C34OC(/C=C\C=C\CCCCCCCCC)(O[C@@H]1[C@@H]3[C@@H]1O[C@]1(CO)[C@@H](O)[C@]1(O)C(=O)C(C)=C[C@@H]41)O2` (some centres undefined): the GI50 with SK-MEL-5 is 11.7 µM (inactive); in the experiment with CCRF-CEM it was 2.52 µM (inactive); in the experiment with NCI/ADR-RES, 18.5 µM (inactive); in the experiment with SN12C, 2.42 µM (inactive); in the experiment on T47D it was 11.9 µM (inactive); in the experiment on SNB-75, 5.07 µM (inactive). Also, the GI50 with SK-OV-3 was 20.3 µM (inactive); with UACC-62, 10 µM (inactive); in the experiment on MCF7 it was 10.6 µM (inactive); in the experiment with MDA-MB-435, 0.0223 µM (active); with HCT-116 it was 7.48 µM (inactive); in the experiment with UO-31 it was 11.2 µM (inactive). For the same compound, the GI50 in the experiment on SF-295 is 0.01 µM (active); in the experiment on M14 it was 13.1 µM (inactive); in the experiment with U-251, 15.5 µM (inactive); in the experiment on OVCAR-4, 9.93 µM (inactive); in the experiment with NCI-H226, 18 µM (inactive).

For the compound `CC1=CC=C2c3ccccc3C=CN2C(=O)C1`, the GI50 in the experiment on SK-MEL-5 is 22.1 µM (inactive); in the experiment with CCRF-CEM, 38.8 µM (inactive); in the experiment with NCI/ADR-RES, 38.7 µM (inactive); in the experiment on SN12C it was 63.5 µM (inactive); in the experiment on T47D it was 32.4 µM (inactive); in the experiment on SNB-75, 38.4 µM (inactive). Besides, the GI50 in the experiment with SK-OV-3 is > 100 µM (inactive); with UACC-62, 84.9 µM (inactive); in the experiment on MCF7, 45.3 µM (inactive); with MDA-MB-435, 34.8 µM (inactive); with SK-MEL-2, 22.4 µM (inactive); in the experiment on HCT-116 it was 40.8 µM (inactive). Moreover, the GI50 in the experiment on UO-31 is 30.9 µM (inactive); in the experiment with SF-295 it was > 100 µM (inactive); in the experiment with M14, 62.1 µM (inactive); with CAKI-1, 56.5 µM (inactive); with U-251, 60.4 µM (inactive); in the experiment with OVCAR-4, > 100 µM (inactive). For the same compound, the GI50 in the experiment on NCI-H226 was 54.8 µM (inactive).

Consider `CC(C)(C)OC(=O)NCCCC(=O)NC1(c2cc3ccccc3s2)CCCCC1`, for which the GI50 is 5.89 µM (inactive) with SK-MEL-5; 11.4 µM (inactive) in the experiment on CCRF-CEM; 16.7 µM (inactive) in the experiment with NCI/ADR-RES; 17.6 µM (inactive) in the experiment with A498; 17.5 µM (inactive) in the experiment on SN12C; 9.66 µM (inactive) in the experiment with T47D. Further, the GI50 with SNB-75 is 5.11 µM (inactive); in the experiment with SK-OV-3, 29.6 µM (inactive); in the experiment on UACC-62, 10.8 µM (inactive); in the experiment with MCF7, 16.3 µM (inactive); in the experiment on MDA-MB-435, 15.4 µM (inactive); in the experiment with HCT-116, 14 µM (inactive). Also, the GI50 was 4.61 µM (inactive) in the experiment on UO-31; 16.6 µM (inactive) in the experiment with SF-295; 18 µM (inactive) in the experiment with M14; 22.1 µM (inactive) in the experiment with CAKI-1; 20.5 µM (inactive) in the experiment with OVCAR-4.

On to `O=C(c1ccc(Cl)cc1)N(C(=S)OCCOc1ccccc1)c1ccccc1`, for which the GI50 is 13.7 µM (inactive) in the experiment on CCRF-CEM; 23.9 µM (inactive) in the experiment with NCI/ADR-RES; 14.9 µM (inactive) in the experiment on A498; 19.3 µM (inactive) in the experiment on SN12C; 20 µM (inactive) in the experiment on T47D; 36.1 µM (inactive) in the experiment with SK-OV-3. Further, the GI50 with UACC-62 was 16.3 µM (inactive); with MCF7, 16.1 µM (inactive); in the experiment on MDA-MB-435, 17 µM (inactive); with SK-MEL-2, 22.1 µM (inactive); in the experiment with HCT-116, 16.2 µM (inactive); in the experiment with UO-31, 0.186 µM (active). The GI50 is 27.6 µM (inactive) with SF-295; 16.1 µM (inactive) with M14; 17.4 µM (inactive) in the experiment with CAKI-1; 16.2 µM (inactive) with U-251; 18.6 µM (inactive) with OVCAR-4.
